Data from US8039644B2, “Hydrogenated benzo (C) thiophene derivatives as immunomodulators” (Actelion Pharmaceuticals Ltd., priority 2005, dated 2011).

Target: recombinant human S1P1 receptor (Homo sapiens, UniProt P21453)
Assay: GTPγS assay to determine EC50 values
Assay type: biochemical
Conditions: GTPγS binding, membrane preparations of CHO cells expressing recombinant human S1P1 receptor
Description: GTPγS Assay to Determine EC50 Values
GTPγS binding assays are performed in 96 well microtiter plates (Nunc, 442587) in a final volume of 200 μl, using membrane preparations of CHO cells expressing recombinant human S1P1 receptor. Assay conditions are 20 mM Hepes (Fluka, 54461), 100 mM NaCl (Fluka, 71378), 5 mM MgCl2 (Fluka, 63064), 0.1% BSA (Calbiochem, 126609), 1 μM GDP (Sigma, G-7127), 2.5% DMSO (Fluka, 41644), 50 pM ^35S-GTPγS (Amersham Biosciences, SJ1320). The pH is 7.4. Test compounds are dissolved and diluted in 100% DMSO and pre-incubated at room temperature for 30 min in 150 μl of the above assay buffer, in the absence of ^35S-GTPγS. After addition of 50 μl of ^35S-GTPγS, the assay is incubated for 1 h at rt. The assay is terminated by transfer of the reaction mixture to a Multiscreen plate (Millipore, MAHFC1H60) using a cell harvester from Packard Biosciences, and the plates are washed with ice-cold 10 mM Na2HPO4/NaH2PO4 (70%/30%), dried, sealed at the bottom and, after addition of 25 μl MicroScint20 (Packard Biosciences, order#6013621), sealed on the top. Membrane-bound ^35S-GTPγS is measured with a TopCount from Packard Biosciences.
EC50 is the concentration of agonist inducing 50% of the maximal specific ^35S-GTPγS binding. Specific binding is determined by subtracting non-specific binding from maximal binding. Maximal binding is the amount of cpm bound to the Multiscreen plate in the presence of 10 μM of S1P. Non-specific binding is the amount of binding in the absence of an agonist in the assay.
The EC50 values were determined according to the method described above.

Sequence of recombinant human S1P1 receptor (P21453 whole entry): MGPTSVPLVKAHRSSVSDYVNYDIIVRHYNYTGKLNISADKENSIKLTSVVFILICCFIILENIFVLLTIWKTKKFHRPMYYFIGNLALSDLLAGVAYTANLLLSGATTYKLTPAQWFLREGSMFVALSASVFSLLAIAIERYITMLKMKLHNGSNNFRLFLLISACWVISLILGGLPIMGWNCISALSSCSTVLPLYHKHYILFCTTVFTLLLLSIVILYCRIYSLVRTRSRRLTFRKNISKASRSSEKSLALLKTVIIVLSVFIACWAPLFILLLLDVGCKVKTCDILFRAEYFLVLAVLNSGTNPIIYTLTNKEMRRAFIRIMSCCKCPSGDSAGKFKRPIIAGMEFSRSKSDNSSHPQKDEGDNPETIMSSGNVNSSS

| EC50 | SMILES |
| --- | --- |
| 2.4 nM | Cc1cc(CCC(=O)c2sc(C)c3c2CCC(C)(C)C3)cc(C)c1OC[C@@H](O)CO [Example 27] |
| 2.8 nM | Cc1cc(CCC(=O)c2sc(C)c3c2CCC(C)(C)C3)cc(C)c1OCC(O)CNCCC(=O)O (stereo not shown) [Example 41] |
| 5.9 nM | COc1cc(CCC(=O)c2sc(C)c3c2CCC(C)(C)C3)cc(Cl)c1OCC(O)CNCCC(=O)O (stereo not shown) [Example 62] |
| 2.5 nM | CCc1sc(C(=O)CCc2cc(C)c(OCCO)c(C)c2)c2c1CC(C)(C)CC2 [Example 66] |
| 5.9 nM | CCc1sc(C(=O)CCc2cc(C)c(OCC(O)COC)c(C)c2)c2c1CC(C)(C)CC2 (stereo not shown) [Example 71] |
| 1.8 nM | CCc1sc(C(=O)CCc2cc(C)c(OCC(O)CNC(CO)CO)c(C)c2)c2c1CC(C)(C)CC2 (stereo not shown) [Example 77] |
| 3.7 nM | CCc1sc(C(=O)CCc2cc(C)c(OCC(O)CNCCN)c(C)c2)c2c1CC(C)(C)CC2 (stereo not shown) [Example 79] |
| 0.6 nM | CCc1sc(C(=O)CCc2cc(C)c(OCC(O)CNCCC(=O)O)c(C)c2)c2c1CC(C)(C)CC2 (stereo not shown) [Example 80] |
| 4.1 nM | CCc1sc(C(=O)CCc2cc(C)c(OCCNC(C)C)c(C)c2)c2c1CC(C)(C)CC2 [Example 114] |
| 3.8 nM | Cc1cc(-c2noc(-c3scc4c3CCC(C)(C)C4)n2)cc(C)c1OCC(O)CNC(=O)CO (stereo not shown) [Example 129] |
| 5.1 nM | COc1cc(CCC(=O)c2sc(C)c3c2CCC(C)(C)C3)cc(Cl)c1OCC(O)CNC(=O)CO (stereo not shown) [Example 149] |
| 1.1 nM | CCc1sc(C(=O)CCc2ccc(OCCO)cc2OC)c2c1CC(C)(C)CC2 [Example 210] |
| 2.9 nM | CCc1sc(C(=O)CCc2ccc(OCCNS(C)(=O)=O)cc2OC)c2c1CC(C)(C)CC2 [Example 230] |
| 3.1 nM | CCc1sc(C(=O)CCc2cc(Cl)c(OCCNC(=O)CNC)c(OC)c2)c2c1CC(C)(C)CC2 [Example 247] |
| 1.8 nM | CCc1sc(C(=O)CCc2ccc(OCCCNS(C)(=O)=O)cc2OC)c2c1CC(C)(C)CC2 [Example 269] |
| 1.7 nM | CCc1sc(C(=O)CCc2cc(C)c(OCC(O)CN)c(C)c2)c2c1CC(C)(C)CC2 (stereo not shown) [Example 271] |
| 1 nM | CCc1sc(C(=O)CCc2cc(C)c(OCC(O)CN3CC(C(=O)O)C3)c(C)c2)c2c1CC(C)(C)CC2 (stereo not shown) [Example 296] |
| 0.8 nM | CCc1sc(C(=O)CCc2cc(C)c(OCC(O)CNC(=O)CN)c(Cl)c2)c2c1CC(C)(C)CC2 (stereo not shown) [Example 312] |
| 1.8 nM | CCc1cc(CCC(=O)c2sc(CC)c3c2CCC(C)(C)C3)cc(C)c1CCCN [Example 339, 3-[4-(3-Amino-propyl)-3-ethyl-5-methyl-phenyl]-1-(3-ethyl-5,5-dimethyl-4,5,6,7-tetrahydro-benzo[c]thiophen-1-yl)-propan-1-one] |
| 3.4 nM | CCc1cc(CCC(=O)c2sc(CC)c3c2CCC(C)(C)C3)cc(C)c1CCCNC(=O)CCNC [Example 351] |
| 8 nM | CCc1sc(C(=O)CCc2ccc(S(=O)(=O)NCCN)cc2)c2c1CC(C)(C)CC2 [Example 356, N-(2-amino-ethyl)-4-[3-(3-ethyl-5,5-dimethyl-4,5,6,7-tetrahydro-benzo[c]thiophen-1-yl)-3-oxo-propyl]-benzenesulfonamide] |
| 6.1 nM | CCc1sc(C(=O)CNc2ccccc2OC)c2c1CC(C)(C)CC2 [Example 378] |
| 4.2 nM | CCCc1sc(C(=O)CCc2cc(C)c(OC[C@H](O)CO)c(C)c2)c2c1CC(C)(C)CC2 [Example 414] |
| 7.6 nM | CCc1sc(C(=O)/C=C/c2cc(C)c(O)c(C)c2)c2c1CC(CC)(CC)CC2 [Example 423, 3-(4-Hydroxy-3,5-dimethyl-phenyl)-1-(3,5,5-triethyl-4,5,6,7-tetrahydro-benzo[c]thiophen-1-yl)-propenone] |
| 6.2 nM | Cc1cc(-c2noc(-c3scc4c3CCC3(CC3)C4)n2)cc(C)c1OCC(O)CNC(=O)CO (stereo not shown) [Example 457] |
| 2.9 nM | CCc1cc(CCC(=O)c2sc(C(F)(F)F)c3c2CCC(C)(C)C3)cc(C)c1OCC(O)CNC(=O)CCO (stereo not shown) [Example 489] |
| 2.6 nM | Cc1cc(CCC(=O)c2sc(C(F)(F)F)c3c2CCC(C)(C)C3)cc(C)c1NCC(O)CO (stereo not shown) [Example 501, 3-[4-(2,3-Dihydroxy-propylamino)-3,5-dimethyl-phenyl]-1-(5,5-dimethyl-3-trifluoromethyl-4,5,6,7-tetrahydro-benzo[c]thiophen-1-yl)-propan-1-one] |
| 9.7 nM | Cc1cc(C)cc(NCC(=O)c2sc(C(F)(F)F)c3c2CCC(C)(C)C3)c1 [Example 517] |
